Assay results as given in patent US10150780B2, “Spirocyclic heterocycle compounds useful as HIV integrase inhibitors” (Merck Sharp & Dohme Corp., priority 2014, dated 2018).
Read-outs that look alike come from different tables or passages of the source.

Tested on: HIV-1 (NL4-3 strain)
Assay: Assay for Inhibition of HIV Replication (VIKING), infected MT4-GFP cells
Assay type: cell-based
Conditions: infected cells at 48 h / 24 h
Experimental: MT4-GFP cells (250,000 cells/ml) were bulk-infected with HIV-1 (NL4-3 strain) at low multiplicity of infection (MOI) in RPMI+10% FBS for 24 hours. Cells were then washed once in RPMI+10% FBS and resuspended RPMI+0% or +100% normal human serum (NHS). Test compounds were serial-diluted in DMSO on ECHO. The infected MT4-GFP cells were added to a 384-well poly-D-lysine coated black plate with clear bottom in which the diluted test compounds were placed. The cells were seeded at 8,000 cells per well and the final DMSO concentration was 0.4%. The infected cells (Green GFP cells) were quantified at both 24 and 48 hours post incubation using Acumen eX3. Viral reproductive ratio (R0) was determined using the number of infected cells at 48 hours divided by the number of infected cells at 24 hours. Percent viral growth inhibition was calculated by [1−(R−Rtripledrug)/(RDMSO−Rtripledrug)]*100.

[1] = Human immunodeficiency virus 1, NL43, 48 h, MT4-GFP cells infected with HIV-1 NL4-3, RPMI + 0% normal human serum, read-out: VIKING IP50 (nM) with 0% NHS
[2] = MT4-GFP cells infected with HIV-1 NL4-3, RPMI + 100% normal human serum, read-out: VIKING IP50 (nM) with 100% NHS
[3] = MT4-GFP cells infected with HIV-1 NL4-3, RPMI + 0% normal human serum, read-out: VIKING IP50 (nM) with 0% NHS
[4] = Human immunodeficiency virus 1, NL43, MT4-GFP cells infected with HIV-1 NL4-3, RPMI + 100% normal human serum, read-out: VIKING IP50 (nM) with 100% NHS

SMILES	IC50 [1] [nM]	IC50 [2] [nM]	IC50 [3] [nM]	IC50 [4] [nM]
COC1N(N(C)C)C(=O)c2c(O)c(=O)c(C(=O)NCc3ccc(F)cc3F)cn2C12CC2 (single isomer, unassigned) [Compound 1]	1.9	> 8000		
COC1N(N(C)C)C(=O)c2c(O)c(=O)c(C(=O)NCc3ccc(F)cc3F)cn2C12CC2 (single isomer, unassigned) [Compound 2]		153	1.7	
O=C(NCc1ccc(F)cc1F)c1cn2c(c(O)c1=O)C(=O)N1CCCOC1C21CC1 (single isomer, unassigned) [Compound 3]	0.6	3370		
O=C(NCc1ccc(F)cc1F)c1cn2c(c(O)c1=O)C(=O)N1CCCOC1C21CC1 (single isomer, unassigned) [Compound 4]		285	0.5	
O=C(NCc1cccc(Cl)c1F)c1cn2c(c(O)c1=O)C(=O)N1CCCOC1C21CC1 (single isomer, unassigned) [Compound 5]	0.8	> 8000		
O=C(NCc1cccc(Cl)c1F)c1cn2c(c(O)c1=O)C(=O)N1CCCOC1C21CC1 (single isomer, unassigned) [Compound 6]		505	0.6	
O=C(NCc1cccc(Cl)c1F)c1cn2c(c(O)c1=O)C(=O)N1CCOC1C21CC1 (single isomer, unassigned) [Compound 10]	0.4	3900		
O=C(NCc1cccc(Cl)c1F)c1cn2c(c(O)c1=O)C(=O)N1CCOC1C21CC1 (single isomer, unassigned) [Compound 11]		> 8000	0.4	
O=C(NCc1cccc(Cl)c1F)c1cn2c(c(O)c1=O)C(=O)N1CCCCOC1C21CC1 (single isomer, unassigned) [Compound 12]		92.3	0.5	
O=C(NCc1cccc(Cl)c1F)c1cn2c(c(O)c1=O)C(=O)N1CCCCOC1C21CC1 (single isomer, unassigned) [Compound 13]		4100	1.3	
CN1CCCN2C(=O)c3c(O)c(=O)c(C(=O)NCc4cccc(Cl)c4F)cn3C3(CC3)C12 (single isomer, unassigned) [Compound 14]	1	2340		
CN1CCCN2C(=O)c3c(O)c(=O)c(C(=O)NCc4cccc(Cl)c4F)cn3C3(CC3)C12 (single isomer, unassigned) [Compound 15]		71.5	0.6	
CN(C)N1CC2(COC2)n2cc(C(=O)NCc3ccc(F)cc3F)c(=O)c(O)c2C1=O [Compound 7]	4			1280
CN(C)N1CC2(CCOCC2)n2cc(C(=O)NCc3ccc(F)cc3F)c(=O)c(O)c2C1=O [Compound 8]	19			1510
COC1N(N(C)C)C(=O)c2c(O)c(=O)c(C(=O)NCc3ccc(F)cc3F)cn2C12COC2 (stereo not drawn) [Compound 9]	7			235
